Values quoted from earlier work, collected in US20040266821A1, “Acylated piperidine derivatives as melanocortin-4 receptor agonists” (priority 2001, published 2004).

Experiments:
[1] = oral route
[2] = not given; remark: listed apart in the source

| Molecule | absorption into the systemic circulation [1] | duration of action (in vivo) | time to onset of erection (in vivo) [min] | response rate (injected intramuscularly or subcutaneously) [%] | duration of effect ([2]; after an oral dose) [h] | onset of action ([2]; after an oral dose) [min] | share of men/patients with adequate response ([2]; oral) |
| --- | --- | --- | --- | --- | --- | --- | --- |
| Ac-Nle-c[Asp-His-DPhe-Arg-Trp-Lys]-NH2 [MT-II] | not absorbed into the systemic circulation | approximately 2.5 hours | 10 to 20 | 75 | – | – | – |
| Cc1ccc(N(CC2=NCCN2)c2cccc(O)c2)cc1 [phentolamine] | – | – | – | – | 2 | 5 to 30 | 35-40% |
